Values quoted from earlier work, collected in patent US20140228595A1, “PROCESSES FOR PRODUCING HEXANEDIOL (HDO), HEXAMETHYLENEDIAMINE (HMD), ADIPONITRILE (ADN), ADIPAMIDE (ADM) AND DERIVATIVES THEREOF” (BioAmber S.A.S., priority 2011, published 2014).

Q: What does the source list for `O=C(O)CCCCC(=O)O` [AA, adipic acid]?
A: pKa1 (Table 1, Run 1): 4.43; pKa of the second acid group of AA (second acid group): 5.1
